Laboratory results published in patent publication US20200113982A1, “Composition and Uses Thereof” (Arborvitae Health and Wellbeing Pty. Ltd., priority 2015, published 2020).

Assay: Case Study 5: Patient A, high cholesterol, blood tests
Type: in vivo, human
Settings: patient-reported, earlier statin use
Procedure: Patient A is a person who has had high cholesterol for approximately 20 years, and who is reasonably fit and is not overweight.
Patient A has been taking 100 mL of the composition of Example 1 each day for a period of 3 weeks. The results of a blood test on 14 Jan. 2015 (prior to taking the composition of Example 1) and a blood test on 24 Jun. 2015 (after taking the composition of Example 1 for 3 weeks) gave the results in Table 6: […]

CC(C)c1c(C(=O)Nc2ccccc2)c(-c2ccccc2)c(-c2ccc(F)cc2)n1CC[C@@H](O)C[C@@H](O)CC(=O)O [Lipitor]
side effects: muscle aches and pain, tiredness, joint pain and a general feeling of not being well
